Patent publication US7118895B2, “Process for producing aglycon by using diglycosidase and flavor-improved food containing the aglycon and converting agent to be used in the process” (Amano Enzyme Inc., priority 2000, dated 2006)

Tested on: Crude diglycosidase
Assay: Examination of pH in the conversion into isoflavone aglycons by diglycosidase using soybean materials
Assay type: biochemical, Penicillium multicolor IAM7153
Set-up: Decomposition efficiency of genistin family in soymilk / Decomposition efficiency of genistin family in defatted soybean / Decomposition efficiency of daidzin family in defatted soybean: concentration or dose not given beside the values
Settings: for Decomposition efficiency of daidzin family in roasted soy flour: 55° C.
Protocol: A substrate solution of 450 μL was prepared by suspending 50 mg of each soybean material (roasted soy flour (manufactured by Fuji Shokuryo K.K.), soymilk (manufactured by Gitoh Shokuhin K.K.), defatted soybean (manufactured by Fuji Seiyu K.K.), concentrated soybean protein (manufactured by Fuji Seiyu K.K.)), and adjusting the pH to 2 to 11 with hydrochloric acid or sodium hydroxide. Each enzyme solution of pH 2–11 wherein diglycosidase activity of crude diglycosidase was adjusted to 1.88 AU/mL was added thereto in an amount of 50 μL and the whole was reacted at 55° C. at the total volume of 500 μL. To the reaction mixture was added 700 μL of ethanol after 0, 1, 3, and 6 hours of the reaction. After stirring and ultrasonication, the mixture was subjected to centrifugal separation at 15,000 rpm and 4° C. for 10 minutes. The supernatant was filtered through a filter and the existence of isoflavone glycosides and aglycon isoflavones contained in the reaction mixture was detected by HLPC (Tables 15 to 26).

[1] = pH6.6, heat treatment of enzyme: no, reaction time 0 h
[2] = pH6.6, heat treatment of enzyme: no, reaction time 1 h
[3] = pH6.6, heat treatment of enzyme: no, reaction time 3 h
[4] = pH6.6, heat treatment of enzyme: no, reaction time 6 h
[5] = pH6.6, heat treatment of enzyme: yes, reaction time 6 h

CC(=O)OC[C@H]1O[C@@H](Oc2ccc3c(=O)c(-c4ccc(O)cc4)coc3c2)[C@H](O)[C@@H](O)[C@@H]1O [acetyldaidzin, 6″-O-acetyldaidzin]
Decomposition efficiency of daidzin family in roasted soy flour (pH5, heat treatment of enzyme no, reaction time 0 h): 47.7
Decomposition efficiency of daidzin family in roasted soy flour (pH5, heat treatment of enzyme no, reaction time 1 h): 38.5
Decomposition efficiency of daidzin family in roasted soy flour (pH5, heat treatment of enzyme no, reaction time 3 h): 24.7
Decomposition efficiency of daidzin family in roasted soy flour (pH5, heat treatment of enzyme no, reaction time 6 h): 15.2
Decomposition efficiency of daidzin family in roasted soy flour (pH5, heat treatment of enzyme yes, reaction time 6 h): 45.0
Decomposition efficiency of daidzin family in concentrated soybean protein (pH5.1, heat treatment of enzyme: no, reaction time 0 h): 44.6%
Decomposition efficiency of daidzin family in concentrated soybean protein (pH5.1, heat treatment of enzyme: no, reaction time 1 h): 43.4%
Decomposition efficiency of daidzin family in concentrated soybean protein (pH5.1, heat treatment of enzyme: no, reaction time 3 h): 37.0%
Decomposition efficiency of daidzin family in concentrated soybean protein (pH5.1, heat treatment of enzyme: no, reaction time 6 h): 31.2%
Decomposition efficiency of daidzin family in concentrated soybean protein (pH5.1, heat treatment of enzyme: yes, reaction time 6 h): 43.4%
Decomposition efficiency of daidzin family in defatted soybean (pH5.4, heat treatment of enzyme: no, reaction time 0 h): not detected
Decomposition efficiency of daidzin family in defatted soybean (pH5.4, heat treatment of enzyme: no, reaction time 1 h): not detected
Decomposition efficiency of daidzin family in defatted soybean (pH5.4, heat treatment of enzyme: no, reaction time 3 h): not detected
Decomposition efficiency of daidzin family in defatted soybean (pH5.4, heat treatment of enzyme: no, reaction time 6 h): not detected
Decomposition efficiency of daidzin family in defatted soybean (pH5.4, heat treatment of enzyme: yes, reaction time 6 h): not detected
Decomposition efficiency of daidzin family in soymilk (pH6.2, heat treatment of enzyme: no, reaction time 0 h): not detected
Decomposition efficiency of daidzin family in soymilk (pH6.2, heat treatment of enzyme: no, reaction time 1 h): not detected
Decomposition efficiency of daidzin family in soymilk (pH6.2, heat treatment of enzyme: no, reaction time 3 h): not detected
Decomposition efficiency of daidzin family in soymilk (pH6.2, heat treatment of enzyme: no, reaction time 6 h): not detected
Decomposition efficiency of daidzin family in soymilk (pH6.2, heat treatment of enzyme: yes, reaction time 6 h): not detected
Decomposition efficiency of daidzin family in roasted soy flour (pH6.5, heat treatment of enzyme no, reaction time 0 h): 48.2
Decomposition efficiency of daidzin family in roasted soy flour (pH6.5, heat treatment of enzyme no, reaction time 1 h): 45.4
Decomposition efficiency of daidzin family in roasted soy flour (pH6.5, heat treatment of enzyme no, reaction time 3 h): 39.2
Decomposition efficiency of daidzin family in roasted soy flour (pH6.5, heat treatment of enzyme no, reaction time 6 h): 34.4
Decomposition efficiency of daidzin family in roasted soy flour (pH6.5, heat treatment of enzyme yes, reaction time 6 h): 43.4
Decomposition efficiency of daidzin family in concentrated soybean protein [1]: 44.8%
Decomposition efficiency of daidzin family in defatted soybean [1]: not detected
Decomposition efficiency of daidzin family in concentrated soybean protein [2]: 43.9%
Decomposition efficiency of daidzin family in defatted soybean [2]: not detected
Decomposition efficiency of daidzin family in concentrated soybean protein [3]: 42.9%
Decomposition efficiency of daidzin family in defatted soybean [3]: not detected
Decomposition efficiency of daidzin family in concentrated soybean protein [4]: 41.2%
Decomposition efficiency of daidzin family in defatted soybean [4]: not detected
Decomposition efficiency of daidzin family in concentrated soybean protein [5]: 41.8%
Decomposition efficiency of daidzin family in defatted soybean [5]: not detected
Decomposition efficiency of daidzin family in soymilk (pH7.2, heat treatment of enzyme: no, reaction time 0 h): not detected
Decomposition efficiency of daidzin family in soymilk (pH7.2, heat treatment of enzyme: no, reaction time 1 h): not detected
Decomposition efficiency of daidzin family in soymilk (pH7.2, heat treatment of enzyme: no, reaction time 3 h): not detected
Decomposition efficiency of daidzin family in soymilk (pH7.2, heat treatment of enzyme: no, reaction time 6 h): not detected
Decomposition efficiency of daidzin family in soymilk (pH7.2, heat treatment of enzyme: yes, reaction time 6 h): not detected
Decomposition efficiency of daidzin family in defatted soybean (pH7.8, heat treatment of enzyme: no, reaction time 0 h): not detected
Decomposition efficiency of daidzin family in defatted soybean (pH7.8, heat treatment of enzyme: no, reaction time 1 h): not detected
Decomposition efficiency of daidzin family in defatted soybean (pH7.8, heat treatment of enzyme: no, reaction time 3 h): not detected
Decomposition efficiency of daidzin family in defatted soybean (pH7.8, heat treatment of enzyme: no, reaction time 6 h): not detected
Decomposition efficiency of daidzin family in defatted soybean (pH7.8, heat treatment of enzyme: yes, reaction time 6 h): not detected
Decomposition efficiency of daidzin family in roasted soy flour (pH8.5, heat treatment of enzyme no, reaction time 0 h): 42.1
Decomposition efficiency of daidzin family in roasted soy flour (pH8.5, heat treatment of enzyme no, reaction time 1 h): 42.7
Decomposition efficiency of daidzin family in roasted soy flour (pH8.5, heat treatment of enzyme no, reaction time 3 h): 40.3
Decomposition efficiency of daidzin family in roasted soy flour (pH8.5, heat treatment of enzyme no, reaction time 6 h): 38.0
Decomposition efficiency of daidzin family in roasted soy flour (pH8.5, heat treatment of enzyme yes, reaction time 6 h): 37.3
Decomposition efficiency of daidzin family in concentrated soybean protein (pH8.6, heat treatment of enzyme: no, reaction time 0 h): 40.7%
Decomposition efficiency of daidzin family in concentrated soybean protein (pH8.6, heat treatment of enzyme: no, reaction time 1 h): 39.2%
Decomposition efficiency of daidzin family in concentrated soybean protein (pH8.6, heat treatment of enzyme: no, reaction time 3 h): 39.0%
Decomposition efficiency of daidzin family in concentrated soybean protein (pH8.6, heat treatment of enzyme: no, reaction time 6 h): 38.1%
Decomposition efficiency of daidzin family in concentrated soybean protein (pH8.6, heat treatment of enzyme: yes, reaction time 6 h): 37.7%
Decomposition efficiency of daidzin family in soymilk (pH11.6, heat treatment of enzyme: no, reaction time 0 h): not detected
Decomposition efficiency of daidzin family in soymilk (pH11.6, heat treatment of enzyme: no, reaction time 1 h): not detected
Decomposition efficiency of daidzin family in soymilk (pH11.6, heat treatment of enzyme: no, reaction time 3 h): not detected
Decomposition efficiency of daidzin family in soymilk (pH11.6, heat treatment of enzyme: no, reaction time 6 h): not detected
Decomposition efficiency of daidzin family in soymilk (pH11.6, heat treatment of enzyme: yes, reaction time 6 h): not detected
